For series [1] the following is noted: injections at 3-month intervals; cited from earlier work.
Series [2] in a line: Effect of gamma irradiation sterilization on spray dried LNGB particles (colour, qualitative HPLC). It is filed as physicochemical. How it is done: In this comparative example, a sample of LNGB particles was prepared using a gamma irradiation step to sterilize spray dried particles. The LNGB particles were obtained by spray drying and then were subjected to gamma irradiation to evaluate the effect of irradiation on the particles. […] Qualitative HPLC was performed to compare the peak profiles of the LNGB particles before and after irradiation. FIGS. 2-5 show HPLC traces of the sample before (FIG. 2) and after (FIGS. 3-5) irradiation. Irradiated samples generated three major peaks, A, D, and E, at >0.15%, as well as a small peak, C, at ˜0.07%. […] In N2- and Ar-purged irradiated samples (FIGS. 4 and 5, respectively), peaks F and G were not resolved from other peaks (either degradation products or gradient artifacts).

The structures appear in SMILES notation. Bounds are passed on as bounds.

Take `CC(=O)O[C@]1(C(C)=O)CC[C@H]2[C@@H]3C[C@H](C)C4=CC(=O)CC[C@]4(C)[C@H]3CC[C@@]21C` [DMPA, Depomedroxyprogesterone Acetate]: the typical failure rate in series [1] was 4%.

As to `C#C[C@]1(OC(=O)CCC)CC[C@H]2[C@@H]3CCC4=CC(=O)CC[C@@H]4[C@H]3CC[C@@]21CC` [LNGB particles, Levonorgestrel butanoate], in series [2] (irradiated samples), the “major impurity peaks A, D, and E (HPLC) after irradiation” value is given as greater than 0.15%; the “small impurity peak C (HPLC) after irradiation” value was roughly 0.07%. Also, the “colour of particles after gamma irradiation” value in series [2] (spray dried particles, gamma irradiated, initial particles white/translucent) is on record as “yellow color”.

(Values after patent US20250041315A1, “LEVONORGESTREL BUTANOATE FORMULATION AND METHODS RELATING THERETO” (The USA, as Represented by the Secretary, Department of …, priority 2021, published 2025).)
